Reference: patent publication US7514448B2, “Azaindoles useful as inhibitors of rock and other protein kinases” (Vertex Pharmaceuticals Incorporated, priority 2004, dated 2009)

Assays:
PKA = PKA (Homo sapiens, UniProt P17612); experiment: PKA inhibition assay, coupled enzyme; format: biochemical; conditions: average Ki if more than one determined
Experimental: Compounds were screened for their ability to inhibit PKA using a standard coupled enzyme assay (Fox et al., Protein Sci, 1998, 7, 2249). Assays were carried out in a mixture of 100 mM HEPES (pH 7.5), 10 mM MgCl2, 25 mM NaCl, 1 mM DTT and 3% DMSO. Final substrate concentrations in the assay were 50 μM ATP (Sigma Chemicals) and 80 μM peptide (Kemptide, American Peptide, Sunnyvale, Calif.). Assays were carried out at 30° C. and 18 nM PKA. Final concentrations of the components of the coupled enzyme system were 2.5 mM phosphoenolpyruvate, 300 μM NADH, 30 μg/ml pyruvate kinase and 10 μg/ml lactate dehydrogenase.
An assay stock buffer solution was prepared containing all of the reagents listed above, with the exception of ATP, and the test compound of the present invention. […] The plate was preincubated for 10 minutes at 30° C. and the reaction initiated by addition of 5 μl of ATP (final concentration 50 μM). Initial reaction rates were determined with a Molecular Devices SpectraMax Plus plate reader over a 15 minute time course. IC50 and Ki data were calculated from non-linear regression analysis using the Prism software package (GraphPad Prism version 3.0a for Macintosh, GraphPad Software, San Diego Calif., USA).

ROCK = ROCK (Homo sapiens, UniProt Q13464); experiment: ROCK radioactive assay ("33P"); format: biochemical; conditions: radioactive assay; average Ki if more than one determined; read-out: ROCK 33P Ki
Description: If more than one value of Ki has been determined, the average Ki is indicated. If no value is indicated, then the Ki was not determined.

Chain of ROCK (Q13464 whole entry): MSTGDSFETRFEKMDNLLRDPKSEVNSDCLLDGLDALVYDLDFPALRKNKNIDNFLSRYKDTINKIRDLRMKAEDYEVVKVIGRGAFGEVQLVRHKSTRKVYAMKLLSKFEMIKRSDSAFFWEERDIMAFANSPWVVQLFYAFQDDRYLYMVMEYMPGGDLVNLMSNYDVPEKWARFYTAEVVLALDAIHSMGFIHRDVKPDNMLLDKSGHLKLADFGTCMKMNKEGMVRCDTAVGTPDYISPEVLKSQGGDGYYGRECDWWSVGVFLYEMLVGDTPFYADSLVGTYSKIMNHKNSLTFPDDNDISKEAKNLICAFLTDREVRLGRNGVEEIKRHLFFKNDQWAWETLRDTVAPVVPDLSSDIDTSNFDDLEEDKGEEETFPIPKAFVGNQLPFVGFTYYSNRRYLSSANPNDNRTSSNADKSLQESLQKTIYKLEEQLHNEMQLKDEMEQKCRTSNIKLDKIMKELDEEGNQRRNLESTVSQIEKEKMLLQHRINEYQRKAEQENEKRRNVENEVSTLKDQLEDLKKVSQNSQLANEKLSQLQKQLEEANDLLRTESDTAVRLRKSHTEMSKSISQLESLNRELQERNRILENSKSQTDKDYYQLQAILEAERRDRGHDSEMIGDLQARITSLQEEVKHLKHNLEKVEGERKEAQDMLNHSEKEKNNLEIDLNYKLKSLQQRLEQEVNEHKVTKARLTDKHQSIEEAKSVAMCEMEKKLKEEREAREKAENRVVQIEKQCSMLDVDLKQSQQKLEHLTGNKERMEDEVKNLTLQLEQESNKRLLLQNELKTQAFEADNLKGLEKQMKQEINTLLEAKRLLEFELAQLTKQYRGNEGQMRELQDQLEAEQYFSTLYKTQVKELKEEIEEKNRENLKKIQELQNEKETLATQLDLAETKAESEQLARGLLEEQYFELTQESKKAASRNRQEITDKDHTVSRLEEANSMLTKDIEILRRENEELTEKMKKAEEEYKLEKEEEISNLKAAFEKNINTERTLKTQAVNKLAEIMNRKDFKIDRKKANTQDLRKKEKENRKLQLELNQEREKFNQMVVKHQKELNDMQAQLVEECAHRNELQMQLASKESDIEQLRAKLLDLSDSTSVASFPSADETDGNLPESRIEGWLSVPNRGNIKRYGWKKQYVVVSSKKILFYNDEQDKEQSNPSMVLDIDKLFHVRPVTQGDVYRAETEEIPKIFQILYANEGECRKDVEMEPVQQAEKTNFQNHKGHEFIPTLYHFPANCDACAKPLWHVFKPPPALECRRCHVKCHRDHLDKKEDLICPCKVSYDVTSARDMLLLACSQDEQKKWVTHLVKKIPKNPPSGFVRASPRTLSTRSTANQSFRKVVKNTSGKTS

| SMILES | Ki (PKA) [nM] | Ki (ROCK) [nM] |
| --- | --- | --- |
| COc1cccc(CC(=O)Nc2nc(-c3c[nH]c4ncccc34)cs2)c1 [I-2] | < 500 |  |
| O=C(NCc1cccc(S(=O)(=O)N2CCOCC2)c1)c1csc(-c2c[nH]c3ncccc23)c1 [II-130] | 500 to 5000 | < 500 |
| CS(=O)(=O)Nc1cccc(CC(=O)Nc2nc(-c3c[nH]c4ncc(O)cc34)cs2)c1 [II-132] | 500 to 5000 | < 500 |
| N#CC1(C(=O)Nc2nc(-c3c[nH]c4ncccc34)cs2)CC1 [II-133] | < 500 | < 500 |
| CC(=O)Nc1nc(-c2c[nH]c3ncccc23)cs1 [II-134] | 500 to 5000 | < 500 |
| CN1CCN(CCOc2cccc(CC(=O)Nc3nc(-c4c[nH]c5ncc(F)cc45)cs3)c2)CC1 [II-136] | 500 to 5000 | < 500 |
| CN1CCN(CCCOc2cccc(CC(=O)Nc3nc(-c4c[nH]c5ncc(F)cc45)cs3)c2)CC1 [II-137] | 500 to 5000 | < 500 |
| COCC(=O)Nc1nc(-c2c[nH]c3ncccc23)cs1 [II-142] | 500 to 5000 | < 500 |
| CO[C@@H](C)C(=O)Nc1nc(-c2c[nH]c3ncccc23)cs1 [II-144] | 500 to 5000 | < 500 |
| O=C1NCC(C(=O)Nc2nc(-c3c[nH]c4ncccc34)cs2)N1 (stereo not shown) [II-147] | < 500 | < 500 |
| O=C1CC[C@@H](C(=O)Nc2nc(-c3c[nH]c4ncccc34)cs2)N1 [II-148] | < 500 | < 500 |
| CS(=O)(=O)Nc1ccc(F)c(CC(=O)Nc2nc(-c3c[nH]c4ncc(F)cc34)cs2)c1 [II-151] | < 500 | < 500 |
| O=C1C[C@H](C(=O)Nc2nc(-c3c[nH]c4ncccc34)cs2)N1 [II-152] | < 500 | < 500 |
| O=C1CCC(C(=O)Nc2nc(-c3c[nH]c4ncccc34)cs2)N1 (stereo not shown) [II-153] | 500 to 5000 | < 500 |
| O=C(Nc1nc(-c2c[nH]c3ncccc23)cs1)C1CCCO1 (stereo not shown) [II-154] | < 500 | < 500 |
| O=C1CC[C@H](C(=O)Nc2nc(-c3c[nH]c4ncccc34)cs2)O1 [II-155] | < 500 | < 500 |
| CC(=O)N[C@H](C)C(=O)Nc1nc(-c2c[nH]c3ncccc23)cs1 [II-156] | 500 to 5000 | < 500 |
| O=C(Nc1nc(-c2c[nH]c3ncccc23)cs1)C1(O)CC1 [II-158] | < 500 | < 500 |

| SMILES | Ki (PKA) [nM] | Ki (ROCK) [nM] |
| --- | --- | --- |
| CC(C)CC(=O)C(=O)Nc1nc(-c2c[nH]c3ncccc23)cs1 [II-160] | < 500 | < 500 |
| CS(=O)(=O)CC(=O)Nc1nc(-c2c[nH]c3ncccc23)cs1 [II-161] | < 500 | < 500 |
| CCC(=O)Nc1nc(-c2c[nH]c3ncccc23)cs1 [II-163] | 500 to 5000 | < 500 |
| CC(C)C[C@H](N)C(=O)Nc1nc(-c2c[nH]c3ncccc23)cs1 [II-166] | < 500 | < 500 |
| CN1CCN(CCCS(=O)(=O)Nc2cccc(CC(=O)Nc3nc(-c4c[nH]c5ncccc45)cs3)c2)CC1 [II-167] | < 500 | < 500 |
| O=C(Cc1cccc(NS(=O)(=O)CCCN2CCCCC2)c1)Nc1nc(-c2c[nH]c3ncccc23)cs1 [II-168] | < 500 | < 500 |
| O=C(Nc1nc(-c2c[nH]c3ncccc23)cs1)C1CCOC1 (stereo not shown) [II-172] | < 500 | < 500 |
| O=C(Nc1nc(-c2c[nH]c3ncccc23)cs1)C1CCCNC1 (stereo not shown) [II-173] | < 500 | < 500 |
| O=C(Nc1nc(-c2c[nH]c3ncccc23)cs1)C1CCNCC1 [II-174] | 500 to 5000 | < 500 |
| O=C(Nc1nc(-c2c[nH]c3ncccc23)cs1)C1CCOCC1 [II-175] | < 500 | < 500 |
| N[C@@H](Cc1ccccc1)C(=O)Nc1nc(-c2c[nH]c3ncccc23)cs1 [II-176] | < 500 | < 500 |
| N[C@H](Cc1ccccc1)C(=O)Nc1nc(-c2c[nH]c3ncccc23)cs1 [II-177] | < 500 | < 500 |
| NCCC(=O)Nc1nc(-c2c[nH]c3ncccc23)cs1 [II-180] | < 500 | < 500 |
| C[C@@H](CO)NC(=O)c1nc(-c2c[nH]c3ncccc23)cs1 [II-182] | 500 to 5000 | < 500 |
| O=C(N[C@@H](CO)c1ccccc1)c1nc(-c2c[nH]c3ncccc23)cs1 [II-185] | 500 to 5000 | < 500 |
| O=C(NC1CCN(Cc2ccccc2)C1)c1nc(-c2c[nH]c3ncccc23)cs1 (stereo not shown) [II-186] | 500 to 5000 | < 500 |
| NCCC(C(=O)Nc1nc(-c2c[nH]c3ncccc23)cs1)c1ccccc1 (stereo not shown) [II-189] | < 500 | < 500 |

The remaining lines, values ahead:

| Ki (PKA) [nM] | Ki (ROCK) [nM] | SMILES |
| --- | --- | --- |
| < 500 |  | O=C(Cc1cccc(O)c1)Nc1nc(-c2c[nH]c3ncccc23)cs1 [I-12] |
| < 500 | < 500 | O=C(Cc1ccccc1)Nc1nc(-c2c[nH]c3ncc(O)cc23)cs1 [II-131] |
| < 500 | < 500 | O=C(Cc1cccc(OCCCC2CCNCC2)c1)Nc1nc(-c2c[nH]c3ncc(F)cc23)cs1 [II-135] |
| 500 to 5000 | < 500 | CC(O)C(=O)Nc1nc(-c2c[nH]c3ncccc23)cs1 (stereo not shown) [II-143] |
| 500 to 5000 | < 500 | CC(=O)N[C@@H](C)C(=O)Nc1nc(-c2c[nH]c3ncccc23)cs1 [II-145] |
| 500 to 5000 | < 500 | O=C1CC[C@@H](C(=O)Nc2nc(-c3c[nH]c4ncccc34)cs2)O1 [II-146] |
| 500 to 5000 | < 500 | CC(=O)NCC(=O)Nc1nc(-c2c[nH]c3ncccc23)cs1 [II-149] |
| < 500 | < 500 | COc1ccc(CC(=O)Nc2nc(-c3c[nH]c4ncc(F)cc34)cs2)c(Cl)c1 [II-150] |
| 500 to 5000 | < 500 | O=C(CO)Nc1nc(-c2c[nH]c3ncccc23)cs1 [II-157] |
| < 500 | < 500 | CC(C)C(O)C(=O)Nc1nc(-c2c[nH]c3ncccc23)cs1 (stereo not shown) [II-159] |
| 500 to 5000 | < 500 | CC(=O)NCCC(=O)Nc1nc(-c2c[nH]c3ncccc23)cs1 [II-164] |
| < 500 | < 500 | NCC(=O)Nc1nc(-c2c[nH]c3ncccc23)cs1 [II-165] |
| < 500 | < 500 | O=C(Cc1cccc(NS(=O)(=O)CCCN2CCOCC2)c1)Nc1nc(-c2c[nH]c3ncccc23)cs1 [II-169] |
| < 500 | < 500 | O=C(Nc1nc(-c2c[nH]c3ncccc23)cs1)[C@@H]1CCCN1 [II-171] |
| < 500 | < 500 | CN[C@@H](Cc1ccccc1)C(=O)Nc1nc(-c2c[nH]c3ncccc23)cs1 [II-178] |
| < 500 | < 500 | CNCC(=O)Nc1nc(-c2c[nH]c3ncccc23)cs1 [II-179] |
| < 500 | < 500 | O=C(c1nc(-c2c[nH]c3ncccc23)cs1)N1CCNCC1 [II-181] |
| 500 to 5000 | < 500 | CC(C)C(CO)NC(=O)c1nc(-c2c[nH]c3ncccc23)cs1 (stereo not shown) [II-183] |
| < 500 | < 500 | O=C(N[C@H](CO)c1ccccc1)c1nc(-c2c[nH]c3ncccc23)cs1 [II-184] |
| < 500 | < 500 | O=C(NC1CCNCC1)c1nc(-c2c[nH]c3ncccc23)cs1 [II-187] |
| < 500 | < 500 | O=C(CNCc1ccccc1)Nc1nc(-c2c[nH]c3ncccc23)cs1 [II-188] |
| < 500 | < 500 | NCCC(C(=O)Nc1nc(-c2c[nH]c3ncccc23)cs1)c1ccc(F)cc1 (stereo not shown) [II-190] |
